Experimental data from article PMC8381248 (Frontiers in Pharmacology, 2021).

What was measured:
[1] = Urinary excretion study after intravenous administration; type: in vivo, Sprague-Dawley (SD) rats; settings: IV 5 mg/kg; for excretion amount in urine: rat
Experimental: Eighteen male SD rats were housed in the barrier rodent facilities to acclimatize for a week in animal quarters, which had air conditioning and an automatically controlled photoperiod of 12 h of light daily. Rats had free access to standard chow diet and water until 12 h prior to the beginning of the experiment, at which time only water was accessed freely. The rats were randomly divided into six groups, with three rats in each group.
A series of calibration standard working solutions (20.0, 10.0, 2.0, 1.0, 0.2, 0.04, and 0.02 μg/ml) was prepared freshly by diluting the stock solution stepwise using ACN-water (70:30, v/v). […] The IS working solutions of 200 ng/ml of tolbutamide or 50 ng/ml of diclofenac sodium were prepared by dilution of the stock standard solution with acetonitrile solution. All the solutions were stored at 4°C and brought to room temperature before use.
QC samples (3, 40, 800, and 1,600 ng/ml) were prepared separately. For PDG urine samples, the calibration standards were prepared by spiking 5 μL of the appropriate standard working solutions of PDG to 95 μL blank rat urine to prepare the final urine concentration of PDG ranging from 1 ng/ml to 2000 ng/ml. QC samples (3, 40, 800, and 1,600 ng/ml) were prepared separately. […] QC samples (15, 30, 400, and 1,600 ng/ml) were prepared separately.
Urine samples were collected while the rats remained isolated in metabolic cages at intervals of 0, 2, 4, 8, 24, and 30 h after administration, and the volumes of the urine were measured. The urine samples were also stored at −20°C before tested by LC-MS/MS. For the urine calibration standards, QC urine samples, and the testing urine samples, 100 µL of the urine samples were extracted with 300 µL of methyl tert-butyl ether (MTBE) by vortex mixing for 1 min and centrifuged at 4°C for 10 min at 13,000 rpm. Then, 200 µL of the supernatant was separated and evaporated under a gentle stream of nitrogen. The residue was reconstituted with 120 µL of 30% ACN with 5 µL of IS working solution ([…]), followed by vortex mixing for 10 min.
Linear gradient elution was performed with certain portions of 10 mM ammonium acetate-water solution containing 0.1% formic acid (mobile phase A) and methanol (mobile phase B). The detailed conditions have been described in Support Materials (Supplementary Table S5).

[2] = system: PE-constricted aortic rings; test: Vasorelaxant effects on isolated PE-constricted aortic rings; set-up: species or system SD rats; settings: 10^–6 M PE, n = 6
Experimental: SD rats were anesthetized by exposure to ether, and the thoracic aorta was removed and immersed in Krebs-Henseleit (K-H) buffer ([Lee et al., 2013]) at 4°C. The connective tissues and fats around the aorta were carefully removed under the microscopes, and the blood was flushed. The aorta ring was cut into four sections approximately 3 mm long and suspended in organ chambers containing K-H buffer. The endothelium was also removed by gently rubbing the lumen of the vessel with a cotton swab. The aortic rings were placed in a 5 ml organ chambers of DMT multiwire myograph system (620M, Danish Myo Technology, Denmark) and were filled with K-H buffer aerated with 95% O2 and 5% CO2 at 37°C. The aortic rings were mounted on hooks connected to a tension transducer and a displacement device.
The initial vessel tension was slowly adjusted to 15 mN and maintained balanced for 60 min. The buffer was renewed once every 15 min. After equilibration, the vessel viability was pre-constricted by exposing the aortic rings to 60 mM KCl for 10 min ([Ding et al., 2019]). Then, the K-H buffer was continuously renewed to elute and restore the initial tension of the vascular ring to assay the vascular activity. The pre-treated operation was repeated two times, where the constriction amplitude after each KCl stimulation to reach the previous constriction amplitude was taken as the criterion, before the experiment continued. Subsequently, 10^–6 M PE was added to contract the blood vessel. After the constriction was stable, different concentrations of Ach (10^−9–10^–5 M) were used to dilate the vessels. Then, the vasorelaxation degree could be calculated with different Ach concentrations, as the following equation: Vasorelaxation degree (%)=Maxium constriction tension induced by PE−Minium diastolic tension induced by Ach/Maxium constriction tension induced by PE−Resting tension×100% (10) When the vasorelaxation degree corresponding to Ach (10^–5 M) is greater than 80%, the vascular endothelium is considered intact and functional. The endothelium is considered to be removed with a vasorelaxation degree of less than 20% ([Lee et al., 2013]). Endothelium-intact and endothelium-denuded aortic rings from the same aorta were tested.
After equilibration, the endothelium-intact and the endothelium-denuded aortic rings were pre-constricted with 10^–6 M PE in the K-H buffer system.
After equilibration, the endothelium-intact aortic rings were pre-constricted with 10^–6 M PE in the K-H buffer system. […] Then, the corresponding vasoconstrictive responses were examined and recorded.
In the vasorelaxant effects investigations, all the data are presented as mean ± SEM. Statistical analysis was performed using two-way ANOVA followed by Fisher’s least significant difference (LSD) test. Values at p < 0.05 were considered statistically significant.

in vitro = settings: PAMPA
Experimental: Verapamil and digoxin solutions, used as reference, prepared in the same manner as the test drugs. Tolbutamide dissolved with acetonitrile (200 ng/ml) was used as IS.
The resultant supernatants were determined by LC-MS/MS. The specific assay conditions are shown in Support Materials (Supplementary Table S2).

## COc1cc(C2OCC3C(c4ccc(OC5OC(CO)C(O)C(O)C5O)c(OC)c4)OCC23)ccc1OC1OC(CO)C(O)C(O)C1O (single isomer, unassigned; (+)) [PDG, (+)-1-pinoresinol 4,4′-di-O-β-D-glucopyranoside]
[1]; rat urine, for 30 h
  cumulative urinary excretion, % of the dose: approximately 78.24%
[1]; rat urine, within 30 h, n = 3
  Cumulative Excretion Amount: 807,789.5 ± 65,828.8 ng
[1]; 0–2 h, n = 3
  excretion amount in urine: 503,669.8 ± 292,869.4 ng
[1]; 2–4 h, n = 3
  excretion amount in urine: 274,878.3 ± 236,625.8 ng
[1]; 4–8 h, n = 3
  excretion amount in urine: 989.1 ± 1,053.6 ng
[1]; 8–24 h, n = 3
  excretion amount in urine: 2,596.9 ± 1776.4 ng
[1]; 24–30 h, n = 3
  excretion amount in urine: 245.1 ± 173.0 ng
[1]; Wash, n = 3
  excretion amount in urine: 25,410.3 ± 5,874.3 ng
[2]; increasing concentration 25–200 μM
  vasorelaxant effect on PE-constricted aortic rings: concentration-dependent vasorelaxation
[2]; PINL difference at 50–100 μM
  vasorelaxation degree, endothelium-denuded versus endothelium-intact group: not statistically significant
In vitro
  Papp at 18000 s: 0.002 ×10⁻⁶ cm/s
In vitro; 18000 s
  Peff: 0.02 cm/s, ×10^–7
